Laboratory results taken from ChEMBL document CHEMBL5370621, “Design, Synthesis, and Biological Evaluation of Novel Thioureidobenzamide (TBA) Derivatives as HBV Capsid Assembly Modulators” (J Med Chem, 2023).
pEC50: −log10 of the molar value.

How the values were obtained:
[1] = Selectivity index, ratio of CC50 for cytotoxicity against human HePAD38 cells to EC50 for antiviral activity against Hepatitis B virus infected in human HePAD38 cells; format: toxicity, cell-based; settings: read-out: Ratio CC50/EC50
Hepatitis B virus = test: Antiviral activity against Hepatitis B virus infected in human HePAD38 cells assessed as inhibition of viral DNA replication by qPCR analysis; format: functional, organism-based
[2] = Cytotoxicity against human HePAD38 cells assessed as reduction in cell viability incubated for 72 hrs by CCK8 assay; format: toxicity, cell-based

| SMILES | selectivity ratio [1] | pEC50 (Hepatitis B virus) | CC50 at 72 h [2] [µM] |
| --- | --- | --- | --- |
| Cc1cc(NC(=O)c2cc(NC(=O)c3ccc(F)cc3)c(F)cc2Br)ccc1F | 2.59 | 6.34 | 1.19 |
| Cc1cc(NC(=O)c2cc(NC(=O)c3ccc(C(F)(F)F)cc3)c(F)cc2Br)ccc1F | 4.83 | 6.00 | 4.88 |
| C=CCNC(=S)Nc1cc(C(=O)Nc2ccc(F)c(C)c2)c(Br)cc1F | 358 | 6.85 | 50.1 |
| Cc1cc(NC(=O)c2cc(NC(=O)c3cccs3)c(F)cc2Br)ccc1F | 129 | 6.18 | 85.1 |
| Cc1ccc(C(=O)Nc2cc(C(=O)Nc3ccc(F)c(C)c3)c(Br)cc2F)cc1 | 40.1 | 6.28 | 20.9 |
| O=C(Nc1ccc(F)c(F)c1)c1cc(S(=O)(=O)N[C@H]2CCOC2)c(F)cc1Br | 67.8 | 6.03 | 63.7 |
| Cc1cc(NC(=O)c2cc(NC(=S)NCc3ccc(C(F)(F)F)cc3)c(F)cc2Br)ccc1F | 16.1 | 6.70 | 3.22 |
| O=C(Nc1ccc(F)cc1)c1cc(S(=O)(=O)N[C@H]2CCOC2)c(F)cc1Br | > 41.8 | 5.62 | > 100 |
| Cc1cc(NC(=O)c2cc(NC(=O)C3CCC3)c(F)cc2Br)ccc1F | 23 | 5.46 | 79.6 |
| Cc1cc(NC(=O)c2cc(S(=O)(=O)NC3CCCC3)c(F)cc2Br)ccc1F | > 227 | 6.36 | > 100 |
| CCN(CC)S(=O)(=O)c1cc(C(=O)Nc2cc(F)c(F)c(F)c2)c(Br)cc1F | 9.72 | 6.34 | 4.47 |
| COc1ccc(CNC(=O)Nc2cc(C(=O)Nc3ccc(F)c(C)c3)c(Br)cc2F)cc1 | 56.1 | 7.06 | 4.88 |
| C=CC(=O)Nc1cc(C(=O)Nc2ccc(F)c(C)c2)c(Br)cc1F | 3.59 | 5.65 | 7.98 |
| Cc1cc(NC(=O)c2cc(NC(=O)C(=O)NC3CCCC3)c(F)cc2Br)ccc1F | < 0.87 | < 4.70 | 17.4 |
| Cc1cc(NC(=O)c2cc(NC(=O)NCc3ccc(C(F)(F)F)cc3)c(F)cc2Br)ccc1F | 35.6 | 6.48 | 11.8 |
| Cc1cc(NC(=O)c2cc(NC(=O)NCc3cccnc3)c(F)cc2Br)ccc1F | > 200 | 6.30 | > 100 |
| Cc1cc(NC(=O)c2cc(NC(=O)NC3CCCC3)c(F)cc2Br)ccc1F | 0.96 | 5.24 | 5.52 |
| N#Cc1cc(NC(=O)c2cc(S(=O)(=O)NC3CCCC3)c(F)cc2Br)ccc1F | 13.3 | 5.84 | 19.3 |
| Cc1cc(NC(=O)c2cc(NC(=O)NCc3ccc(C(C)(C)C)cc3)c(F)cc2Br)ccc1F | > 42.9 | 5.63 | > 100 |
| Cc1cc(NC(=O)c2cc(NC(=O)NCc3cc(F)cc(F)c3)c(F)cc2Br)ccc1F | 20.7 | 6.74 | 3.72 |
| O=C(Nc1cc(F)c(F)c(F)c1)c1cc(S(=O)(=O)NC2CCCC2)c(F)cc1Br | 313 | 6.96 | 34.5 |
| Cc1cc(NC(=O)c2cc(NC(=S)NCc3ccc(B(O)O)cc3)c(F)cc2Br)ccc1F | 106 | 7.54 | 3.08 |
| O=C(Nc1ccc(F)cc1)c1cc(S(=O)(=O)NC2CCCC2)c(F)cc1Br | 74.4 | 6.11 | 58 |
| O=C(Nc1ccc(F)c(Cl)c1)c1cc(S(=O)(=O)N[C@H]2CCOC2)c(F)cc1Br | 21.9 | 6.03 | 20.6 |
| O=C(Nc1cc(F)cc(F)c1)c1cc(S(=O)(=O)NC2CCCC2)c(F)cc1Br | > 123 | 6.09 | > 100 |

| SMILES | selectivity ratio [1] | pEC50 (Hepatitis B virus) | CC50 at 72 h [2] [µM] |
| --- | --- | --- | --- |
| Cc1cc(NC(=O)c2cc(NC(=O)NC3CCC(O)CC3)c(F)cc2Br)ccc1F (centres undefined) | > 13.6 | 5.13 | > 100 |
| Cc1cc(NC(=O)c2cc(NC(=O)C3CCCC3)c(F)cc2Br)ccc1F | > 93.5 | 5.97 | > 100 |
| O=C(Nc1ccc(F)c(C(F)(F)F)c1)c1cc(S(=O)(=O)NC2CCCC2)c(F)cc1Br | – | < 4.70 | > 100 |
| Cc1cc(NC(=O)c2cc(S(=O)(=O)N[C@H]3CCOC3)c(F)cc2Br)ccc1F | > 164 | 6.21 | > 100 |
| Cc1cc(NC(=O)c2cc(NC(=O)NCc3ccc(F)cc3)c(F)cc2Br)ccc1F | 54.4 | 6.47 | 18.5 |
| Cc1cc(NC(=O)c2cc(NC(=O)C3CC3)c(F)cc2Br)ccc1F | 155 | 6.27 | 84 |
| Cc1cc(NC(=O)c2cc(NC(=O)N3CCC(O)CC3)c(F)cc2Br)ccc1F | > 23 | 5.36 | > 100 |
| Cc1cc(NC(=O)c2cc(NC(=O)Nc3ccc(C(F)(F)F)cc3)c(F)cc2Br)ccc1F | 0.67 | 5.28 | 3.5 |
| Cc1cc(NC(=O)c2cc(NC(=O)C(=O)NC3CC3)c(F)cc2Br)ccc1F | 25.3 | 6.17 | 17 |
| O=C(Nc1cc(F)c(F)c(F)c1)c1cc(S(=O)(=O)N[C@H]2CCOC2)c(F)cc1Br | 18.8 | 5.33 | 88.2 |
| C=C1[C@H](CO)[C@@H](O)C[C@@H]1n1cnc2c(=O)[nH]c(N)nc21 [ENTECAVIR ANHYDROUS] | 3780 | 7.68 | 79.3 |
| Cc1cc(NC(=O)c2cc(NC(=O)Nc3cc(F)c(F)c(F)c3)c(F)cc2Br)ccc1F | 2.19 | 5.93 | 2.59 |
| CCNC(=S)Nc1cc(C(=O)Nc2ccc(F)c(C)c2)c(Br)cc1F | 242 | 6.74 | 43.6 |
| CCCc1ccc(C(=O)Nc2cc(C(=O)Nc3ccc(F)c(C)c3)c(Br)cc2F)cc1 | 55.1 | 6.24 | 32 |
| Cc1cc(CNC(=S)Nc2cc(C(=O)Nc3ccc(F)c(C)c3)c(Br)cc2F)ccc1F | 37.1 | 7.00 | 3.71 |
| Cc1cc(NC(=O)c2cc(NC(=O)c3ccc(C#N)cc3)c(F)cc2Br)ccc1F | 572 | 6.82 | 85.7 |
| O=C(Nc1cc(F)c(F)c(F)c1)c1cc(S(=O)(=O)N2CCC(O)CC2)c(F)cc1Br | 1.98 | 5.76 | 3.41 |
| O=C(Nc1ccc(F)c(C(F)(F)F)c1)c1cc(S(=O)(=O)N[C@H]2CCOC2)c(F)cc1Br | > 19.8 | 5.30 | > 100 |
| N#Cc1cc(NC(=O)c2cc(S(=O)(=O)N[C@H]3CCOC3)c(F)cc2Br)ccc1F | > 15.4 | 5.19 | > 100 |
| Cc1cc(NC(=O)c2cc(NC(=O)NC(C)C)c(F)cc2Br)ccc1F | 16.6 | 5.94 | 19.1 |
| Cc1cc(NC(=O)c2cc(NC(=S)NC(C)C(F)(F)F)c(F)cc2Br)ccc1F (centres undefined) | 710 | 7.62 | 17.1 |
| Cc1cc(NC(=O)c2cc(NC(=O)C(=O)NC(C)C)c(F)cc2Br)ccc1F | > 496 | 6.70 | > 100 |
| Nc1ccn([C@@H]2CS[C@H](CO)O2)c(=O)n1 [LAMIVUDINE] | > 25.1 | 5.40 | > 100 |
| C/C=C/C(=O)Nc1cc(C(=O)Nc2ccc(F)c(C)c2)c(Br)cc1F | 14.4 | 5.70 | 28.5 |
| COCCC(=O)Nc1cc(C(=O)Nc2ccc(F)c(C)c2)c(Br)cc1F | 27.4 | 5.45 | 97.4 |
